In brackets after ≈: the same amount, converted by molar mass. Read-outs that look alike come from different tables or passages of the source. Residues, ends and D or L forms follow the SMILES beside them.
How the values were obtained:
Format in all cases: cell-based
[1] = test system: chicken red blood cells (ch-RBCs)
Procedure: The ability of EC5 to induce hemolysis of chicken red blood cells (ch-RBCs) was assessed as previously described (Pathak, S. and Chauhan, V. S. (2011) Antimicrob. Agents Chemother. 55, 2178-2188). Red blood cells were harvested and washed with phosphate-buffered saline (PBS). 1% (vol/vol) suspension was made with PBS. 100 μl and 50 μl of this RBC suspension were transferred to 96-well microtiter plates. Two-fold serial dilutions of the peptide samples were prepared and added to the RBCs. The reaction mixture was incubated at 37° C. for 24 h in microtiter plates. Results were visually determined.
The hemolytic activity of EC5 against chRBCs was determined as a measure of peptide toxicity toward higher eukaryotic cells (Yount, N. Y., et al., (2011) PLoS. One. 6, e26727; Tachi, T., et al., Biochemistry 41, 10723-10731). MHC is the maximal peptide concentration that produces no hemolysis after 24 h of incubation at 37° C.

other bacteria tested = assay: 2 h incubation of mid-logarithmic cultures with peptide, CFU on NA plates; conditions: even at 50 μg/ml
Procedure: All bacterial strains used in this study originated from ATCC (Manassas, Va.): S. aureus (ATCC 25923; ATCC 35548), S. epidermidis (ATCC 35983), E. coli (ATCC 700928; ATCC 25922), P. aeruginosa (ATCC 27853; ATCC 12121), K pneumoniae (ATCC 10031; ATCC 13885) and B. cereus (ATCC 11778). Cultures were maintained and subcultured periodically on nutrient agar plates and stored at 4 to 8° C. until tested. Stock cultures of all bacteria were stored in tryptic soy broth with 10% glycerol at −70° C. Log-phase cultures of bacteria grown in Miller's Luria-Bertani (LB) broth (Mediatech Inc, Herndon, Va.) were concentrated by centrifugation at 3000×g and dilutions were prepared with phosphate-buffered saline (PBS; pH 7.4) (Mediatech Inc, Herndon, Va.). In all experiments bacterial titers were estimated by optical density and confirmed by quantitative culture by plating on nutrient agar (NA) plates.
Mid-logarithmic phase cultures of bacteria with an inoculum of 10^5 CFU/ml were incubated with peptide concentrations ranging from 0 to 50 μg/ml in a shaker incubator for 2 h following which the samples were plated on NA agar plates and CFU determined.

K pneumoniae = test system: K pneumoniae
Procedure: (§1) In vitro anti-bacterial activity of EC5. The test microorganisms mentioned earlier in the experimental procedures were used to evaluate the bactericidal activity of EC5 peptide. The minimum inhibitory concentrations (MICs) of the peptide were determined by standard dilution assay as recommended by Clinical and Laboratory Standard Institutes (CLSI) guidelines (Azad, M. A., et al., (2011) Antimicrob. Agents Chemother. 55, 2137-2145). Bacteria were grown to mid-logarithmic phase in cation-supplemented Mueller-Hinton broth (MHB) (Becton Dickinson, Sparks, Md.) on an orbital shaker (37° C.) and diluted to a 0.5 McFarland standard to a final volume of 1 ml. Decreasing concentrations of the peptide were incubated with the microorganisms. Results were recorded by visual inspection after 24 h of incubation at 37° C. Assay was repeated three separate times to ensure reproducibility. […] EC5 concentrations 0x, 0.5x, 1x, and 2×MIC were incubated with logarithmic phase of bacteria of approximately 10^5 CFU/ml in an orbital shaker for 48 h at 37° C. Samples were drawn and plated on NA plates. Polymyxin B was used as a positive control and peptide with no anti-bacterial activity from our previous studies was used as a negative control.

P. aeruginosa [2] = test system: P. aeruginosa
Procedure: as §1

E. coli [3] = test system: E. coli
Procedure: as §1

B. cereus = assay: Anti-bacterial activity in spiked platelets; conditions: even at high concentrations
Procedure: (§2) The anti-bacterial activity of the peptide in the presence of homologous plasma and platelets were assessed. Platelet Concentrates (PCs) in bags were obtained and stored at room temperature as described earlier (Mohan, K. V. et al., (2010) Transfusion 50, 166-173). Plasma was isolated from the PC bag by collecting 25 ml of PCs and subjecting the sample to a low speed centrifugation step to separate PLT-rich plasma from plasma. For assays log phase cultures of bacteria grown in Luria-Bertani (LB) broth were centrifuged at 3000×g and suspended in 1×PBS pH7.4. Bacterial titers were estimated by measuring the optical density (OD) and microscopy. Approximately 10^5 CFU/ml of each bacterial strain was spiked into 0.1 ml of plasma or platelets and incubated with peptide at concentrations ranging from 50 to 0 μg/ml. Incubation was carried out at room temperature for 2 h on a shaker. At the end of 2-h exposure period, a fixed volume of the suspension was plated on NA plates, and incubating at 37° C. for 18 to 24 h. Bactericidal activity was measured by log-reduction by viable bacteria.

P. aeruginosa [4] = assay: Anti-bacterial activity in spiked platelets; conditions: EC5 25 and 12.5 μg/ml; 2 h
Procedure: as §2

P. aeruginosa [5] = assay: ATP inhibition (BACTITER-GLO); conditions: EC5 at lowest concentration of 3.125 μg/ml
Procedure: (§3) The effects of EC5 on ATP inhibition as a measure of metabolic activity of E. coli and P. aeruginosa cells was determined by using BACTITER-GLO™ assay kit (Promega) according to the manufacturer's protocol. The luminescent signal correlates with the number of viable microbial cells based on the amount of ATP present after the addition of different concentrations of the peptide. Polymyxin B was included as a positive control.
(§4) ATP inhibition as a measurement of microbial viability was measured using BacTiter-Glo kit ([…]). Intracellular ATP levels of E. coli and P. aeruginosa were examined after the addition of different concentrations of EC5 (FIG. 9D). ATP inhibition began 5 min after the addition of EC5 at lowest concentration of 3.125 μg/ml which was slightly lower than the MIC of 8 μg/ml for E. coli and P. aeruginosa.

E. coli [6] = assay: ATP inhibition (BACTITER-GLO); conditions: EC5 at lowest concentration of 3.125 μg/ml
Procedure: as §3, §4

P. aeruginosa [7] = assay: Time-kill kinetics; conditions: P. aeruginosa ATCC 12121; 27853
Procedure: as §1

E. coli [8] = assay: Time-kill kinetics
Procedure: as §1

CC[C@H](C)[C@H](NC(=O)[C@H](CCCCN)NC(=O)[C@H](CCCNC(=N)N)NC(=O)[C@H](Cc1ccccc1)NC(=O)[C@H](CC(C)C)NC(=O)[C@H](CC(C)C)NC(=O)[C@@H](N)CCCNC(=N)N)C(=O)N[C@@H](CCCNC(=N)N)C(=O)N[C@@H](CCCNC(=N)N)C(=O)N[C@@H](CC(C)C)C(=O)N[C@@H](CCCCN)C(=O)N[C@@H](CCCNC(=N)N)C(=O)O [EC5, RLLFRKIRRLKR] (H-RLLFRKIRRLKR-OH; N-terminus and C-terminus assumed)
therapeutic index (MIC versus concentrations inducing hemolysis) [1]: favorable
activity against the other bacteria tested (other bacteria tested): no activity
MIC (K pneumoniae): 64 to 128 µg/mL
MIC (P. aeruginosa [2]): 16 to 32 µg/mL
Minimum Bactericidal Concentration (MBC) (P. aeruginosa [2]): 8 µg/mL
MIC (P. aeruginosa [2]; P. aeruginosa ATCC 27853): 8 µg/mL (≈ 4.83 µM)
MIC (P. aeruginosa [2]; P. aeruginosa, strain not named): 8 µg/mL (≈ 4.83 µM)
MIC (E. coli [3]): 8 µg/mL (≈ 4.83 µM)
Minimum Bactericidal Concentration (MBC) (E. coli [3]): 8 µg/mL
reduction of B. cereus in platelets (B. cereus): No significant reduction
reduction of P. aeruginosa in platelets (P. aeruginosa [4]): 4 log10 CFU/ml
time at which ATP inhibition began (P. aeruginosa [5]): 5 min
time at which ATP inhibition began (E. coli [6]): 5 min
regrowth (P. aeruginosa [7]): no regrowth until 24 hrs
time to complete inhibition (P. aeruginosa [7]): 5 min
reduction of E. coli (E. coli [8]; 4 μg/ml, around 45 min of exposure): 2-3 log10 CFU/ml
regrowth (E. coli [8]; E. coli ATCC 700928, 25922): no regrowth until 24 hrs
time to complete inhibition (E. coli [8]; E. coli ATCC 700928, 25922): 5 min
killing of E. coli (E. coli [8]; MBC concentration of 8 μg/ml): complete killing

Reference: patent publication US9243036B2, “Anti-microbial activity of synthetic peptides” (THE UNITED STATES OF AMERICA, as represented by the …, priority 2012, dated 2016)
